Assay results reported in patent US20220242812A1, “SWELL1-LRRC8 COMPLEX MODULATORS” (Washington University, priority 2019, published 2022).
Entries after “also recorded” stand apart in the source; their conditions may differ.

Experiments:
[1] = biological target: T1, SWELL1-LRRC8 channel (ICl,SWELL) in HEK-293 cells (Homo sapiens, UniProt Q8IWT6); experiment: ICl,SWELL inhibition after hypotonic activation, patch-clamp in HEK-293 cells; format: cell-based
T1 construct: endogenous in cells; host or cells: HEK-293 (ATCC CRL-1573)
Method: Mean presented±SEM. Two-tailed unpaired t-test was used. *, **, and *** represents p<0.05, p<0.01 and p<0.001, respectively.
Patch-clamp recordings of β-cells and mature adipocytes were performed as described previously (Kang et al., 2018; Zhang et al., 2017). 3T3-F442A WT and KO preadipocytes were prepared as described in the Cell culture section above. For SWELL1 overexpression recordings, preadipocytes were first transduced with Ad5-CAG-LoxP-stop-LoxP-3×Flag-SWELL1 (MOI 12) in 2% FBS culture medium for two days and then overexpression induced by adding Ad5-CMV-Cre-wt-lRES-eGFP (MOI 10-12) in 2% FBS culture medium for two more days and changed to 10% FBS containing culture media and were selected based on GFP expression (˜2-3 days). For cell recordings, islets were transduced with Ad-RIP2-GFP and then dispersed after 48-72 hours for patch-clamp experiments. GFP+ cells marked β-cells selected for patch-clamp recordings. […] Recordings were measured using […] amplifier paired to a Digidata 1550 digitizer using pClamp 10.4 software. The extracellular buffer composition for hypotonic stimulation contains 90 mM NaCl, 2 mM CsCl, 1 mM MgCl, 1 mM CaCb, 10 mM HEPES, 10 mM Mannitol, pH 7.4 with NaOH (210 mOsm/kg). The extracellular isotonic buffer composition is same as above except for Mannitol concentration of 110 mM (300 mOsm/kg). The composition of intracellular buffer is 120 mM L-aspartic acid, 20 mM CsCl, 1 mM MgCl, 5 mM EGTA, 10 mM HEPES, 5 mM MgATP, 120 mM CsOH, 0.1 mM GTP, pH 7.2 with CsOH. All recordings were carried out at room temperature (RT) with HEK-293 cells, β-cells and 3T3-F442A cells performed in whole-cell configuration and human adipocytes in perforated-patch configuration, as previously described (Kang et al., 2018; Zhang et al., 2017).

HFD-induced T2D mice = experiment: Metabolic phenotyping (fasting glucose, GTT, ITT) in HFD-fed T2D mice; format: in vivo
Method: All compounds were dissolved in Kolliphor® EL (Sigma, #C5135).
Mice were fasted for 6 h prior to glucose tolerance tests (GTT). Baseline glucose levels at 0 min timepoint (fasting glucose, FG) were measured from blood sample collected from tail snipping using glucometer (Bayer Healthcare LLC). Either 1 g or 0.75 g D-Glucose/kg body weight were injected (i.p.) for lean or HFD mice, respectively and glucose levels were measured at 7, 15, 30, 60, 90 and 120 min timepoints after injection. For insulin tolerance tests (ITTs), the mice were fasted for 4 h. […] All mice and treatment groups were assessed blindly while performing experiments.

[2] = In vivo pharmacokinetics in mice; settings: for bioavailability: male, C57/BL6, mouse, plasma, po, 5 mg/kg, AUCp.o./AUCi.v.; for AUCinf / Cmax / T-half: single dose 5 mg/kg
Method: Male C57/BL6 mice were used in the study and assessed for a single dose (5 mg/kg) administration. The compounds were prepared in Cremaphor for i.p. and p.o dose routes and in 5% ethanol, 10% Tween-20 and water mix for i.v. route at a final concentration of 1 mg/ml. […] The blood samples were collected in tubes with K2 EDTA anticoagulant and further processed to collect plasma by centrifugation at 3500 rpm at 5° C. for 10 min Samples were further processed in LC/MS to determine the concentration of the compounds. Non-compartmental analysis was performed to obtain the PK parameters using the PKPlus software package (Simulation Plus). The area under the plasma concentration-time curve (AUCint) is calculated from time 0 to infinity where the Cmax is the maximal concentration achieved in plasma and t112 is the terminal elimination half-life. Oral bioavailability was calculated as AUCorailAUC1v*100.

CYP 2D6 = biological target: T2, CYP 2D6 (Homo sapiens, UniProt P10635); experiment: Cytochrome P450 inhibition assay, CYP 2D6; format: in vitro ADME; settings: human liver microsomes
T2 construct: Human liver microsomes were diluted in Potassium phosphate buffer; tissue Charles River Laboratory (performed the study); host or cells: human liver microsomes

[3] = test system: islets, glucose-stimulated insulin secretion; experiment: Islet perifusion GSIS assay, islets from treated T2D mice; format: in vivo
Method: For patch-clamp studies involving primary mouse cells, the mice were anesthesized by injecting Avertin (0.0125 g/ml in H2O) followed by cervical dislocation. […] Perifusion buffer contained (in mM): 120 NaCl, 24 NaHCO3, 4.8 KCl, 2.5 CaCl, 1.2 MgSO4, 10 HEPES, 2.8 glucose, 27.2 mannitol, 0.25% w/v bovine serum albumin, pH 7.4 with NaOH (300 mOsm/kg). Perifusion buffer kept at 37° C. was circulated at 120 μI/min After 48 min of washing with 2.8 mM glucose solution for stabilization, islets were stimulated with the following sequence: 16 min of 16.7 mM glucose, 40 min of 2.8 mM glucose, 10 min of 30 mM KCl, and 12 min of 2.8 mM glucose. Osmolarity was matched by adjusting mannitol concentration when preparing solution containing 16.7 mM glucose. Serial samples were collected either every 1 or 2 min into 96 wells kept at 4° C. Insulin concentrations were further determined using commercially available ELISA kit (Mercodia). The area under the curve (AUC) for the high-glucose induced insulin release was calculated for time points between 50 to 74/84 min. At the completion of the experiments, islets were further lysed by addition of RIPA buffer and the amount of insulin was detected by ELISA.

SWELL1 protein = SWELL1 protein (Mus musculus, UniProt Q80WG5); experiment: Glucolipotoxic stress (palmitate + glucose) SWELL1 protein in 3T3-F442A adipocytes; settings: 10 μM 96 h, 1 mM palmitate + 25 mM glucose
[4] = HFD-induced T2D mice, 5 mg/kg i.p. 4-10 days
[5] = after 16 weeks of HFD feeding, vs vehicle
[6] = HFD 12-18 weeks, 5 mg/kg/day x 4 days, pre- vs post-treatment

| SMILES | bioavailability [2] [%] | AUCinf ([2]; Intraperitoneal) [ng·h/mL] | Cmax ([2]; Intraperitoneal) [ng/mL] | T-half ([2]; Intraperitoneal) [h] | AUCinf ([2]; Intravenous) [ng·h/mL] | Cmax ([2]; Intravenous) [ng/mL] | T-half ([2]; Intravenous) [h] | AUCinf ([2]; Oral) [ng·h/mL] | Cmax ([2]; Oral) [ng/mL] | T-half ([2]; Oral) [h] | IC50 (CYP 2D6) [µM] | Prevention of palmitate/glucose-induced SWELL1 protein reduction (SWELL1 protein) | further results |
| --- | --- | --- | --- | --- | --- | --- | --- | --- | --- | --- | --- | --- | --- |
| CCCCC1(C2CCCC2)Cc2cc(OCCCC(=O)O)c(Cl)c(Cl)c2C1=O (centres unmarked) [SN-401, 4-((2-butyl-6,7-dichloro-2-cyclopentyl-1-oxo-2,3-dihydro-1H-inden-5-yl)oxy)butanoic acid] | 79 | 23030 | 4367 | 2.056 | 5958 | 5443 | 1.428 | 4682 | 781 | 2.585 | > 10 | entirely prevented | Concentration required for inhibiting activated SWELL1-LRRC8 ([1]; upon hypotonic stimulation): ~10 µM; Glucose tolerance (HFD-induced T2D mice; HFD-T2D mice, daily i.p. for 8 weeks (FIG. 31D)): striking effects; Fasting blood glucose (FG) (HFD-induced T2D mice; [4]): normalized; Glucose tolerance (GTT) (HFD-induced T2D mice; [4]): normalized; Insulin-tolerance (ITT) (HFD-induced T2D mice; [4]): markedly improved; ITT (HFD-induced T2D mice; after 16 weeks of HFD feeding (ITT at 18 weeks), vs vehicle): marked improvements; FG (HFD-induced T2D mice; [5]): marked improvements; GTT (HFD-induced T2D mice; [5]): marked improvements; Perifusion GSIS from isolated islets ([3]; HFD mice, 21 weeks HFD): significantly improved |
| CCCCC1(C2CCCC2)Cc2cc(OCCCCCC(=O)O)c(Cl)c(Cl)c2C1=O (centres unmarked) [SN-406, 6-((2-butyl-6,7-dichloro-2-cyclopentyl-1-oxo-2,3-dihydro-1H-inden-5-yl)oxy)hexanoic acid] | 48 | 18180 | 4300 | 1.809 | 6532 | 15130 | 0.7689 | 3131 | 660.7 | 2.058 | > 10 | entirely prevented | On-target inhibition of ICl,SWELL ([1]; HEK-293 cells, hypotonic (210 mOsm), 10 and 7 μM, relative to SN-401): maintained or enhanced; also recorded: increase; Fasting blood glucose (HFD-induced T2D mice; [6]): markedly reduced; Glucose tolerance (HFD-induced T2D mice; [6]): improved; Insulin sensitivity based on HOMA-IR (HFD-induced T2D mice; HFD T2D mice, compared to SN071): trend toward improved; Glucose tolerance (HFD-induced T2D mice; HFD T2D mice, separate experiment, compared to SN071): significantly improved; Plasma concentrations relative to ICl,SWELL inhibitory concentrations ([2]; 5 mg/kg i.p. dosing): transiently approach; Plasma concentrations relative to ICl,SWELL inhibitory concentrations ([2]; 5 mg/kg p.o. dosing): remain well below; Insulin secretion in perifusion GSIS ([3]; islets of HFD T2D mice, compared to SN071): significantly augmented |
